Each compound was assayed against T1, human IL-17A (Homo sapiens, UniProt Q16552) (assay: IL-17A AlphaLISA competition assay (block of IL-17A binding to its receptor IL-17RA)). Conditions: mean IC50 (n≥2), block of IL-17A binding to IL-17RA.
T1 construct: purchased R&D Systems 7955-IL/CF
T1 sequence (Q16552 24-155): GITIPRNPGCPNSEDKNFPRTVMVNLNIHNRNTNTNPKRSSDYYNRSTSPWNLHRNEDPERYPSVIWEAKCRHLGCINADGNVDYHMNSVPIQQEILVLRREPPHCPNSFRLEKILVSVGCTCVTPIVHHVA
Summary of the method: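 Bead-based AlphaLISA competition in PBS with 0.05% Tween-20 and 0.1% BSA: compound first meets human IL-17A (7.5 nM stock) for 30 min, then IL-17RA/Fc (5 nM stock) for 90 min, all at room temperature, before acceptor/donor bead capture. IC50 fitted 4-parameter, DMSO and 4 μM reference inhibitor as controls; at least duplicate.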

Structure (SMILES)	IC50 [nM]
COC[C@H](c1ccnc(NC(=O)[C@@H](NC(=O)c2cnoc2C(C)C)[C@@H]2C[C@H]3C[C@H]3C2)c1)N1C[C@@H](C(F)(F)F)NC1=O [Example 319, N—((S)-1-((1R,3s,5S)-bicyclo[3.1.0]hexan-3-yl)-2-((4-((S)-2-methoxy-1-((S)-2-oxo-4-(trifluoromethyl)imidazolidin-1-yl)ethyl)pyridin-2-yl)amino)-2-oxoethyl)-5-isopropylisoxazole-4-carboxamide]	38
COCC(c1ccnc(NC(=O)[C@@H](NC(=O)OC(C)(C)C)[C@H]2CC[C@H](C)CC2)c1)N1C[C@@H](C(F)(F)F)NC1=O (single isomer, unassigned) [Example 66, tert-butyl ((S)-2-((4-((R or S)-2-methoxy-1-((S)-2-oxo-4-(trifluoromethyl)imidazolidin-1-yl)ethyl)pyridin-2-yl)amino)-1-((1r,4S)-4-methylcyclohexyl)-2-oxoethyl)carbamate]	74
CCn1nccc1C(=O)N[C@H](C(=O)Nc1cc(C(C2CC2)N2C[C@@H](C(F)(F)F)NC2=O)ccn1)C1CCC(F)(F)CC1 (single isomer, unassigned) [Example 165, N-((1S)-2-((4-((R or S)-cyclopropyl((S)-2-oxo-4-(trifluoromethyl)imidazolidin-1-yl)methyl)pyridin-2-yl)amino)-1-(4,4-difluorocyclohexyl)-2-oxoethyl)-1-ethyl-1H-pyrazole-5-carboxamide]	41
Cc1cn([C@H](C)c2ccnc(NC(=O)[C@@H](NC(=O)c3nonc3C3CC3)C3CCC(F)(F)CC3)c2)c(=O)[nH]1 [Example 168, 4-Cyclopropyl-N—((S)-1-(4,4-difluorocyclohexyl)-2-((4-((R)-1-(4-methyl-2-oxo-2,3-dihydro-1H-imidazol-1-yl)ethyl)pyridin-2-yl)amino)-2-oxoethyl)-1,2,5-oxadiazole-3-carboxamide]	5790
COC[C@H](c1ccnc(NC(=O)[C@@H](NC(=O)c2conc2C)C2CCC(F)(F)CC2)c1)N1C[C@@H](C(F)(F)F)NC1=O [Example 194, N-((S)-1-(4,4-difluorocyclohexyl)-2-((4-((S)-2-methoxy-1-((S)-2-oxo-4-(trifluoromethyl)imidazolidin-1-yl)ethyl)pyridin-2-yl)amino)-2-oxoethyl)-3-methylisoxazole-4-carboxamide]	68
Cc1nonc1C(=O)NC(C(=O)Nc1cc(CN2CC(C(F)(F)F)NC2=O)ccn1)C1CCC(F)CC1 [Example 291, N-((S)-1-((1r,4S)-4-fluorocyclohexyl)-2-oxo-2-((4-(((S)-2-oxo-4-(trifluoromethyl)imidazolidin-1-yl)methyl)pyridin-2-yl)amino)ethyl)-4-methyl-1,2,5-oxadiazole-3-carboxamide]	619
COC[C@H](c1ccnc(NC(=O)[C@H](COC(C)(C)C(F)(F)F)NC(=O)c2ccnn2C)c1)N1C[C@@H](C(F)(F)F)NC1=O [Example 271, N-((S)-1-((4-((S)-2-methoxy-1-((S)-2-oxo-4-(trifluoromethyl)imidazolidin-1-yl)ethyl)pyridin-2-yl)amino)-1-oxo-3-((1,1,1-trifluoro-2-methylpropan-2-yl)oxy)propan-2-yl)-1-methyl-1H-pyrazole-5-carboxamide]	36
CCn1nccc1C(=O)N[C@H](C(=O)Nc1cc(C(NC(=O)CCC(F)(F)F)C2CC2)ccn1)C1CCC(F)(F)CC1 (stereo partly drawn) [Example 108, N-((1S)-2-((4-(cyclopropyl(4,4,4-trifluorobutanamido)methyl)pyridin-2-yl)amino)-1-(4,4-difluorocyclohexyl)-2-oxoethyl)-1-ethyl-1H-pyrazole-5-carboxamide]	33
COCC(c1ccnc(NC(=O)C(NC(=O)C(F)(F)c2cccc(Cl)c2)C2CCC(C)CC2)c1)N1CC(C(F)(F)F)NC1=O (single isomer, unassigned) [Example 249]	49
COCC(NC(=O)CCC(F)(F)F)c1ccnc(NC(=O)[C@@H](NC(=O)c2ccnn2C)C2CCC(F)(F)CC2)c1 (single isomer, unassigned) [Example 136]	252

From US20260200928A1, “THERAPEUTIC COMPOUNDS” (Sanofi, priority 2022, published 2026)
